Measurements published in the supplement of paper PMC10307832.

What was measured:
Experiment in all cases: relative viability (nuclei count vs DMSO), 5 days (fraction); higher = more cells survive
[1] = compound: O=C(CCCCCCNC(=O)c1cnc(N(c2ccccc2)c2ccccc2)nc1)NO [Ricolinostat] + Nc1nc2[nH]cc(CCc3ccc(C(=O)N[C@@H](CCC(=O)O)C(=O)O)cc3)c2c(=O)[nH]1 [Pemetrexed] (partner 0.2 µM)
Summary of the method: (§1)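 Each reported value is a median over duplicate plates. It expresses relative viability: treated-well nuclei count divided by vehicle-well nuclei count. Lung cancer cell lines in 1536-well plates were dosed by pin tool a day after seeding, alone with one drug or with a fixed anchor-drug dose plus five library-drug doses (not always all listed) in √10 steps, and nuclei were counted after 5 days.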

[2] = compound: C1=CC=C(C(=C1)C2=CC=C(C=C2)C3=CSC4=C3C(=C(C(=O)N4)C#N)O)O + Nc1nc2[nH]cc(CCc3ccc(C(=O)N[C@@H](CCC(=O)O)C(=O)O)cc3)c2c(=O)[nH]1 [Pemetrexed] (partner 0.2 µM)
Summary of the method: as §1

TGX 221 + OSI-027 = compound: CC1=CN2C(=O)C=C(N=C2C(=C1)C(C)NC3=CC=CC=C3)N4CCOCC4 [TGX 221] + COc1cccc2cc(-c3nc([C@H]4CC[C@H](C(=O)O)CC4)n4ncnc(N)c34)[nH]c12 [OSI-027] (partner 0.5 µM)
Summary of the method: as §1

[3] = compound: C1=CC=C(C(=C1)C2=CC=C(C=C2)C3=CSC4=C3C(=C(C(=O)N4)C#N)O)O + Cc1nc(NC(=O)N2CCC[C@H]2C(N)=O)sc1-c1ccnc(C(C)(C)C(F)(F)F)c1 [Alpelisib] (partner 2 µM)
Summary of the method: as §1

Work on NCI-H1792 yielded a relative viability ([1]; first compound 0.253 µM) of 0.92, a relative viability ([1]; first compound 0.8 µM) of 0.59 and a relative viability ([1]; first compound 2.53 µM) of 0.415. For the same cell line, the relative viability ([2]; first compound 0.253 µM) was 0.835, the relative viability ([2]; first compound 0.8 µM) was 0.714 and the relative viability ([2]; first compound 2.53 µM) was 0.649. For the same cell line, the relative viability ([2]; first compound 8 µM) was 0.477, the relative viability (TGX 221 + OSI-027; first compound 0.08 µM) was 0.768 and the relative viability (TGX 221 + OSI-027; first compound 0.253 µM) was 0.601. For the same cell line, the relative viability (TGX 221 + OSI-027; first compound 0.8 µM) was 0.71, the relative viability (TGX 221 + OSI-027; first compound 2.53 µM) was 0.517 and the relative viability (TGX 221 + OSI-027; first compound 8 µM) was 0.564. It also gave a relative viability ([3]; first compound 0.253 µM) of 0.638, a relative viability ([3]; first compound 0.8 µM) of 0.744 and a relative viability ([3]; first compound 2.53 µM) of 0.612. The relative viability ([3]; first compound 8 µM) was 0.336.
